Data taken from ChEMBL document CHEMBL1201862, “PubChem BioAssay data set” (2004).
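Cells were grown in 96-well plates and exposed to each compound for 48 hours at five concentrations; endpoints were interpolated linearly between bracketing concentrations, or set to the highest concentration if not reached. The concentration for 50% growth inhibition is given as GI50.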 Active and inactive are the calls of the source. Cut-off read from the data, not from the text of the source: active = GI50 up to about 1.1 µM and inactive = higher.

What was measured:
Experiment in all cases: NCI tumour cell line growth inhibition, 48 h
A498 = tested on: A498
A549 = tested on: A549
CAKI-1 = tested on: CAKI-1
CCRF-CEM = tested on: CCRF-CEM
COLO 205 = tested on: COLO 205
DLD-1 = tested on: DLD-1
DMS-114 = tested on: DMS-114
DMS-273 = tested on: DMS-273
EKVX = tested on: EKVX
HCC 2998 = tested on: HCC 2998
HCT-116 = tested on: HCT-116
HCT-15 = tested on: HCT-15
HL-60 = tested on: HL-60
HOP-18 = tested on: HOP-18
HOP-62 = tested on: HOP-62
HOP-92 = tested on: HOP-92
HT-29 = tested on: HT-29
IGROV-1 = tested on: IGROV-1
K562 = tested on: K562
KM-20L2 = tested on: KM-20L2
KM12 = tested on: KM12
LOX IMVI = tested on: LOX IMVI
M19-MEL = tested on: M19-MEL
MCF7 = tested on: MCF7
Malme-3M = tested on: Malme-3M
NCI-H226 = tested on: NCI-H226
NCI-H23 = tested on: NCI-H23
NCI-H460 = tested on: NCI-H460
NCI-H522 = tested on: NCI-H522
NCI/ADR-RES = tested on: NCI/ADR-RES
OVCAR-3 = tested on: OVCAR-3
OVCAR-4 = tested on: OVCAR-4
OVCAR-5 = tested on: OVCAR-5
OVCAR-8 = tested on: OVCAR-8
RPMI-8226 = tested on: RPMI-8226
RXF 393 = tested on: RXF 393
SF-268 = tested on: SF-268
SF-295 = tested on: SF-295
SF-539 = tested on: SF-539
SK-MEL-28 = tested on: SK-MEL-28
SK-MEL-2 = tested on: SK-MEL-2
SK-MEL-5 = tested on: SK-MEL-5
SK-OV-3 = tested on: SK-OV-3
SN12C = tested on: SN12C
SNB-19 = tested on: SNB-19
SNB-75 = tested on: SNB-75
SNB-78 = tested on: SNB-78
SW-620 = tested on: SW-620
U-251 = tested on: U-251
UACC-257 = tested on: UACC-257
UACC-62 = tested on: UACC-62
UO-31 = tested on: UO-31
XF498 = tested on: XF498
786-0 = tested on: 786-0
ACHN = tested on: ACHN
LXFL 529 = tested on: LXFL 529
M14 = tested on: M14
MOLT-4 = tested on: MOLT-4
RXF 631 = tested on: RXF 631
TK-10 = tested on: TK-10

Nc1ccc2c(c1)C1=NNC(=O)CC1C2 (configuration not stated)
GI50 (A498): 60.4 µM (inactive) | GI50 (A549): > 100 µM (inactive) | GI50 (CAKI-1): > 100 µM (inactive) | GI50 (CCRF-CEM): > 100 µM (inactive) | GI50 (COLO 205): > 100 µM (inactive) | GI50 (DLD-1): > 100 µM (inactive) | GI50 (DMS-114): > 100 µM (inactive) | GI50 (DMS-273): > 100 µM (inactive) | GI50 (EKVX): > 100 µM (inactive) | GI50 (HCC 2998): > 74.1 µM (inactive) | GI50 (HCT-116): > 100 µM (inactive) | GI50 (HCT-15): > 100 µM | GI50 (HL-60): > 100 µM (inactive) | GI50 (HOP-18): > 77.6 µM (inactive) | GI50 (HOP-62): > 100 µM (inactive) | GI50 (HOP-92): > 100 µM (inactive) | GI50 (HT-29): > 100 µM (inactive) | GI50 (IGROV-1): > 100 µM (inactive) | GI50 (K562): > 100 µM (inactive) | GI50 (KM-20L2): > 100 µM (inactive) | GI50 (KM12): > 100 µM (inactive) | GI50 (LOX IMVI): > 100 µM (inactive) | GI50 (M19-MEL): > 100 µM (inactive) | GI50 (MCF7): > 31.6 µM (inactive) | GI50 (Malme-3M): > 100 µM (inactive) | GI50 (NCI-H226): > 100 µM (inactive) | GI50 (NCI-H23): > 100 µM (inactive) | GI50 (NCI-H460): > 100 µM (inactive) | GI50 (NCI-H522): > 100 µM (inactive) | GI50 (NCI/ADR-RES): > 100 µM (inactive) | GI50 (OVCAR-3): > 31.6 µM (inactive) | GI50 (OVCAR-4): 47.8 µM (inactive) | GI50 (OVCAR-5): > 92.5 µM (inactive) | GI50 (OVCAR-8): > 100 µM (inactive) | GI50 (RPMI-8226): > 40.4 µM (inactive) | GI50 (RXF 393): > 100 µM (inactive) | GI50 (SF-268): > 100 µM (inactive) | GI50 (SF-295): > 100 µM (inactive) | GI50 (SF-539): > 100 µM (inactive) | GI50 (SK-MEL-28): > 100 µM (inactive) | GI50 (SK-MEL-2): > 100 µM (inactive) | GI50 (SK-MEL-5): > 100 µM (inactive) | GI50 (SK-OV-3): > 100 µM (inactive) | GI50 (SN12C): > 100 µM (inactive) | GI50 (SNB-19): > 100 µM (inactive) | GI50 (SNB-75): 78.5 µM (inactive) | GI50 (SNB-78): > 100 µM (inactive) | GI50 (SW-620): > 100 µM (inactive) | GI50 (U-251): > 100 µM (inactive) | GI50 (UACC-257): > 100 µM (inactive) | GI50 (UACC-62): > 100 µM (inactive) | GI50 (UO-31): > 100 µM (inactive) | GI50 (XF498): > 100 µM (inactive)

O=C1C2C3SC(c4cc5ccccc5cc43)C2C(=O)N1c1ccccc1 (configuration not stated)
GI50 (786-0): 50.8 µM (inactive) | GI50 (A498): 41.8 µM (inactive) | GI50 (A549): > 100 µM (inactive) | GI50 (ACHN): 48.5 µM (inactive) | GI50 (CAKI-1): 45 µM (inactive) | GI50 (CCRF-CEM): > 100 µM (inactive) | GI50 (COLO 205): > 100 µM (inactive) | GI50 (DMS-114): > 100 µM (inactive) | GI50 (DMS-273): > 100 µM (inactive) | GI50 (EKVX): > 100 µM (inactive) | GI50 (HCC 2998): > 100 µM (inactive) | GI50 (HCT-116): > 100 µM (inactive) | GI50 (HCT-15): > 100 µM | GI50 (HL-60): > 100 µM (inactive) | GI50 (HOP-18): > 100 µM (inactive) | GI50 (HOP-92): 30.1 µM (inactive) | GI50 (HT-29): > 100 µM (inactive) | GI50 (IGROV-1): > 100 µM (inactive) | GI50 (K562): > 100 µM (inactive) | GI50 (KM-20L2): > 100 µM (inactive) | GI50 (KM12): > 100 µM (inactive) | GI50 (LOX IMVI): > 100 µM (inactive) | GI50 (LXFL 529): 94.6 µM (inactive) | GI50 (M14): > 100 µM (inactive) | GI50 (M19-MEL): > 100 µM (inactive) | GI50 (MOLT-4): > 100 µM (inactive) | GI50 (Malme-3M): 70.3 µM (inactive) | GI50 (NCI-H226): > 100 µM (inactive) | GI50 (NCI-H23): 98.9 µM (inactive) | GI50 (NCI-H522): 75.7 µM (inactive) | GI50 (OVCAR-3): > 100 µM (inactive) | GI50 (OVCAR-4): 39.4 µM (inactive) | GI50 (OVCAR-5): > 100 µM (inactive) | GI50 (OVCAR-8): 90.6 µM (inactive) | GI50 (RPMI-8226): > 100 µM (inactive) | GI50 (RXF 393): 28.1 µM (inactive) | GI50 (RXF 631): > 100 µM (inactive) | GI50 (SF-268): > 100 µM (inactive) | GI50 (SF-295): > 100 µM (inactive) | GI50 (SF-539): 85.3 µM (inactive) | GI50 (SK-MEL-28): 88.5 µM (inactive) | GI50 (SK-MEL-2): 77.1 µM (inactive) | GI50 (SK-MEL-5): > 100 µM (inactive) | GI50 (SK-OV-3): > 100 µM (inactive) | GI50 (SN12C): > 100 µM (inactive) | GI50 (SNB-19): 30.7 µM (inactive) | GI50 (SNB-75): 19.8 µM (inactive) | GI50 (SNB-78): 84.5 µM (inactive) | GI50 (SW-620): > 100 µM (inactive) | GI50 (TK-10): > 100 µM (inactive) | GI50 (U-251): 68.2 µM (inactive) | GI50 (UACC-257): > 100 µM (inactive) | GI50 (UACC-62): 95.1 µM (inactive) | GI50 (UO-31): > 100 µM (inactive)
